Measurements as given in US4824996A, “Phospholipase A2 inhibitors” (American Home Products Corporation, priority 1986, dated 1989).
Read-outs that look alike come from different tables or passages of the source.

Tests used:
human platelet PLA2 = target: T1, human platelet PLA2 (Homo sapiens, UniProt P14555); experiment: in vitro assay of inhibition of human platelet PLA2 (hydrolysis of [1-14C]oleic acid labelled E. coli membrane phospholipids); assay type: biochemical
T1 construct: The PLA2 enriched supernatant fluid is removed; from tissue; host or cells: expired human platelets from the blood bank (acid extract, 10,000 g supernatant)
T1 sequence (P14555 21-144): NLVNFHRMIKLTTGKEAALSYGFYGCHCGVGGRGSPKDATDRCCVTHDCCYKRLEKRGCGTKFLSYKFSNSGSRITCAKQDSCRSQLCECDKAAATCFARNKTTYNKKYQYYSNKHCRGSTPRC
Description: The ability of the compounds to inhibit the activity of PLA2 enzyme is measured in the following in vitro assay.
(§1) The assay is carried out as follows:
E. coli, cultured to exponential growth, are sedimented for 15 minutes at 10,000 g and resuspended in sterile isotonic saline (1-3 ml). 10-25 μCi [1-^14 C] oleic acid is added to a sterile flask, evaporated by N2 and resolubilized with 0.3 ml 20% fatty acid-free BSA. 75-100 ml of nutrient broth and 1 ml E. coli are then added to each flask and incubated for 2-3 hours at 37° C. [1-^14 C] oleic acid labelled E. coli are then sedimented, suspended in saline and added to fresh nutrient broth and incubated for 1.5 hours at 37° C. to complete [1-^14 C] oleic acid incorporation into the phospholipids. After overnight refrigeration of cultures, E. coli are again sedimented, suspended in saline and autoclaved for 15 minutes at 120° C. E. coli cultures are washed twice with saline (first wash contains 1% BSA) and resuspended in saline. Non-labelled E. coli cultures are also prepared in the same manner. Cell number is determined by measuring the optical density at 550 nm ([…]=1 O.D.). The amount of radioactivity associated with cells is determined by counting a defined volume of cell suspension. The specific activity is subsequently adjusted by adding non-labelled E. coli to yield 2-4×10 cpm per 1×10^10 E. coli. [1-^14 C] arachidonic acid-labelled E. coli are similarly prepared.
Platelet PLA2 Preparation
Expired human platelets from the blood bank are centrifuged for 15 minutes at 200 g to obtain a platelet rich plasma fraction and to remove the red blood cells. Platelets are sedimented for 15 minutes at 2500 g and the plasma is removed before adding cold 0.18N […] (4 ml/unit). Platelets are homogenized, incubated for 1 hour at 4° C., homogenized again and centrifuged for 15 minutes at 10,000 g. The PLA2 enriched supernatant fluid is removed and the amount of protein is determined by the Lowry method. The preparation is divided into various portions and stored at -20° C.
The assay measures the hydrolysis of E. coli membrane phospholipids and the release of free [1-^14 C] oleic acid from the C-2 position of phospholipids by human platelet PLA2. To ice cold 15×100 mm test tubes, the following additions are made: 2,5×10 E. coli (equivalent to 4 nmol phospholipid), 5 mM Ca^++, 100 mM Tris buffer (pH=7.4), 100 μg platelet extract (or an amount to produce 20-30% hydrolysis), drug or vehicle. The final volume is adjusted to 500 μl with water. Mixtures are vortexed and incubated for 30 minutes in a shaking water bath. It should be noted that preliminary experiments are always performed with each new batch of platelets to establish linear hydrolysis of phospholipids with regard to protein concentration and time. The enzyme reaction is stopped by the addition of 3 volumes of CHCl3 to each tube which is vortexed and then centrifuged for 5 minutes at 500 g. The lower CHCl3 /CH3 OH phase is removed and evaporated under N. The dried residue is redissolved in 50 μl CHCl3 :CH3 OH (9:1 v/v), spotted on aluminum-backed chromatographic plates and developed in a solvent system consisting of petroleum ether:diethyl ether:acetic acid (80:20:1). Free fatty acid ([1-^14 C]oleic acid) and [1-^14 C]oleic acid labeled phospholipids are visualized with exposure to iodine vapors. Radioactive areas that cochromatographed with authentic oleic acid and phospholipid standards are cut out and placed in a scintillation vial. One ml CH3 OH and 10 ml Hydrofluor are added to each cut strip and radioactivity is determined by liquid scintillation counting.
The percent hydrolysis is calculated by the following equation: [formula]

[1] = system: synthesis of arachidonic acid by murine peritoneal macrophages; experiment: inhibition of arachidonic acid (AA) synthesis by murine peritoneal macrophages; assay type: cell-based, CD-1 mice; details: compounds at 10 μm (so in the source)
Description: (§2) The ability of the compounds of the invention to inhibit both leukotriene and prostaglandin synthesis is examined in an assay which measures the ability of the compounds of the invention to inhibit the synthesis of arachidonic acid, PGE2 and LTC4 by murine peritoneal macrophages.
as §1
(§3) Macrophages are removed from the peritoneal cavity of 55-57 day old CD-1 mice (killed by CO2 asphyxiation) by peritoneal lavage and centrifuged at 400×g for ten minutes. The cells are resuspended in Medium 199 and 4×10^6 cells are allowed to adhere on 35×10 mm Petri dishes for 1.5 hours at 37° C. in an atmosphere of 95% air and 5% CO2. The cell monolayers are washed and incubated overnight in Medium 199 supplemented with 10% heat inactivated bovin serum containing 1 μCi[^14 C]-arachidonic acid, or in the absence of ^14 C-arachidonic acid when the supernatant is to be assayed by radioimmunoassay (RIA). The labeled cells are then washed and incubated at 37° C. for 2 hours in Medium 199 with the prostaglandin stimuli, zymosan, or 12-o-tetradecanoyl-phorbol-13-acetate (TPA) and in the presence or absence of test compounds. Following incubation, the supernatant is removed and subjected to radioimmunoassay in order to determine the percent inhibition of arachidonic acid, prostaglandin E2 and leukotriene C4 by the test compounds.

[2] = system: synthesis of PGE2 by murine peritoneal macrophages; experiment: inhibition of PGE2 synthesis by murine peritoneal macrophages; assay type: cell-based, CD-1 mice; details: compounds at 10 μm (so in the source)
Description: as §2, §1, §3

[3] = system: synthesis of LTC4 by murine peritoneal macrophages; experiment: inhibition of LTC4 synthesis by murine peritoneal macrophages; assay type: cell-based, CD-1 mice; details: compounds at 10 μm (so in the source)
Description: as §2, §1, §3

[4] = system: lipoxygenase and/or cyclooxygenase pathways of arachidonic acid; experiment: in vivo 12-O-tetradecanoylphorbol acetate (TPA)-induced murine ear edema test; set-up: species or system Swiss Webster female mice; details: 30 minutes after TPA, ears measured after 4 hours; for % Change from Control, TOPICAL TPA: 1 mg/ear; for % Change from Control, ORAL TPA: 100 mg/kg
From the text: (§4) The ability of the compounds of the invention to inhibit the lipoxygenase and/or cyclooxygenase pathways of arachidonic acid is examined in the in vivo arachidonic acid (AA)-/12-O-tetradecanoylphorbol acetate (TPA)-induced murine ear edema test.
(§5) According to this test, Swiss Webster female mice (Buckshire), approximately 8 weeks old, are placed into plastic boxes in groups of six. Eight groups of mice receive AA topically on the right ear, and another 8 groups receive TPA topically on the right ear. AA and TPA are dissolved in acetone at concentrations of 100 mg/ml ad 100 μg/ml respectively. The phlogistics are applied to the right ear by the means of an automatic pipet. Volumes of 10 μl are applied to the inner and outer surfaces of the ear. Each mouse receives either 2 mg/ear AA or 4 μg/ear TPA. The left ear (control) receives acetone delivered in the same manner. Oral and topical dosing regimens are as follows: (1) drugs are given 30 minutes prior to AA treatment, and (2) drugs are given 30 minutes after treatment with TPA.
(§6) Measurements are taken with Oditest calipers, 0-10 mm with 0.01 graduations. The right and left ears are measured after 1 hour AA-induced inflammation and 4 hours after TPA-induced inflammation.
(§7) The difference between right and left ear thickness is calculated and the significance is determined by a one way analysis of variance with Dunnett's comparisons to control (P=0.05). Drug effects are expressed as a percent change from control values: [formula]

[5] = system: lipoxygenase and/or cyclooxygenase pathways of arachidonic acid; experiment: in vivo arachidonic acid (AA)-induced murine ear edema test; set-up: species or system Swiss Webster female mice; details: 1 mg/ear, 30 minutes prior to AA, ears measured after 1 hour
From the text: as §4
as §5, with “Oral and topical dosing regimens are as follows: (1) drugs are given 30 minutes prior to AA treatment, and (2) drugs are given 30 minutes after treatment with TPA.” left out
as §6, §7

[6] = compounds of the invention, Table 1, read-out: IC50 (inhibition of PLA2)

| Molecule | inhibition at 100 µM (human platelet PLA2) [%] | IC50 (human platelet PLA2; [6]) [µM] | Mean % Inhibition ± S.E., AA [1] [%] | Mean % Inhibition ± S.E., PGE2 [2] [%] | Mean % Inhibition ± S.E., LTC4 [3] [%] | % Change from Control, TOPICAL TPA [4] [%] | also measured |
| --- | --- | --- | --- | --- | --- | --- | --- |
| CCCCCCCCCCCCNC(=O)OCCCCCCN(C)C [Example 1, Dodecylcarbamic acid 6-(dimethylamino)hexyl ester] | 100 | – | – | – | – | – | – |
| CCCCCCCCCCCCCCCCNC(=O)OCCCCCCN(C)C [Example 2, Hexadecylcarbamic acid 6-(dimethylamino)hexyl ester] | 100 | 30 | 36.92 ± 6.29 | 81.18 ± 2.06 | 81.00 ± 1.79 | -42 | % Change from Control, TOPICAL AA [5]: -29% |
| CCCCCCCCCCCCCCCCNC(=O)OCCCN(C)C [Example 3, Hexadecylcarbamic acid 3-(dimethylamino)propyl ester] | 100 | – | – | – | – | – | – |
| CCCCCCCCCCCCCCC(=O)NCCCN(C)C [Example 4, N-[3-(dimethylamino)propyl]pentadecanamide] | 100 | 6.8 | 34.12 ± 5.58 | 48.62 ± 9.32 | 91.95 ± 2.57 | -48 | % Change from Control, ORAL TPA [4]: -60% |
| Gold Sodium Thiomalate [reference compound] | – | – | – | – | – | – | IC50 (human platelet PLA2; standard drugs, read-out: Inhibition of PLA2 Activity IC50): 43 µM |

Now from value to molecule, other results behind:

| inhibition at 100 µM (human platelet PLA2) [%] | IC50 (human platelet PLA2; [6]) [µM] | Molecule | Mean % Inhibition ± S.E., AA [1] [%] | Mean % Inhibition ± S.E., PGE2 [2] [%] | Mean % Inhibition ± S.E., LTC4 [3] [%] | % Change from Control, TOPICAL TPA [4] [%] | also measured |
| --- | --- | --- | --- | --- | --- | --- | --- |
| 11 | – | CCCCCCNC(=O)OCCCCCCN(C)C [Example 5, Hexylcarbamic acid 6-(dimethylamino)hexyl ester] | – | – | – | – | – |
| 100 | – | CCCCCCCCCCCCCCCCNC(=O)NCCCN(C)C [Example 6, N-[3-(dimethylamino)propyl]-N'-hexadecylurea] | – | – | – | – | – |
| 94.4 | – | CCCCCCCCCCCCCCCCS(=O)(=O)NCCCCCCCN(CC)CC [Example 7] | – | – | – | – | – |
| 55.9 | – | CCCCCCCCCCCCCC(=O)NN(C)C [Example 8, Tetradecanoic acid 2,2-dimethylhydrazide] | – | – | – | – | – |
| 100 | 8.5 | CCCCCCCCCCCCCC(=O)N1CC(C)NC(C)C1 (stereo not shown) [Example 9, 3,5-Dimethyl-1-(1-oxotetradecyl)piperazine] | 50.42 ± 2.50 | 73.50 ± 8.20 | 82.15 ± 2.48 | -55 | % Change from Control, ORAL TPA [4]: -25% |
